{
  "source": "patent US20120225848A1",
  "about": "“Antagonists of GABA-B Receptors to Enhance Neuronal Function, Learning and Memory” (priority 2009, published 2012)",
  "key": {"[1]": {"tested_on": "dentate gyrus (DG) of hippocampal slices", "experiment": "LTP of evoked field potentials in dentate gyrus of hippocampal slices", "assay_type": "cell-based, mouse"}, "[2]": {"tested_on": "dentate gyrus (DG) of hippocampal slices", "experiment": "Spontaneous ictal bursts in high-potassium model of epilepsy in hippocampal slices", "assay_type": "cell-based, mouse", "details": "1 μM, extracellular potassium 7.5 mM", "excerpt": "To evaluate more directly the potential effects of GABAB antagonists on epileptic properties of DG neural circuits, we examined spontaneous ictal bursts in hippocampal slices provoked by an increase in extracellular potassium. […] These changes were greater in Ts65Dn than in 2N slices (p<0.05). […] While the mechanism of the effect is yet to be refined, reduced electrochemical potential for potassium ions and the enhancement of feedback inhibition may both play a role."}, "[3]": {"molecular_target": "presynaptic GABAB receptors", "sequence (Q9UBS5 20-961)": "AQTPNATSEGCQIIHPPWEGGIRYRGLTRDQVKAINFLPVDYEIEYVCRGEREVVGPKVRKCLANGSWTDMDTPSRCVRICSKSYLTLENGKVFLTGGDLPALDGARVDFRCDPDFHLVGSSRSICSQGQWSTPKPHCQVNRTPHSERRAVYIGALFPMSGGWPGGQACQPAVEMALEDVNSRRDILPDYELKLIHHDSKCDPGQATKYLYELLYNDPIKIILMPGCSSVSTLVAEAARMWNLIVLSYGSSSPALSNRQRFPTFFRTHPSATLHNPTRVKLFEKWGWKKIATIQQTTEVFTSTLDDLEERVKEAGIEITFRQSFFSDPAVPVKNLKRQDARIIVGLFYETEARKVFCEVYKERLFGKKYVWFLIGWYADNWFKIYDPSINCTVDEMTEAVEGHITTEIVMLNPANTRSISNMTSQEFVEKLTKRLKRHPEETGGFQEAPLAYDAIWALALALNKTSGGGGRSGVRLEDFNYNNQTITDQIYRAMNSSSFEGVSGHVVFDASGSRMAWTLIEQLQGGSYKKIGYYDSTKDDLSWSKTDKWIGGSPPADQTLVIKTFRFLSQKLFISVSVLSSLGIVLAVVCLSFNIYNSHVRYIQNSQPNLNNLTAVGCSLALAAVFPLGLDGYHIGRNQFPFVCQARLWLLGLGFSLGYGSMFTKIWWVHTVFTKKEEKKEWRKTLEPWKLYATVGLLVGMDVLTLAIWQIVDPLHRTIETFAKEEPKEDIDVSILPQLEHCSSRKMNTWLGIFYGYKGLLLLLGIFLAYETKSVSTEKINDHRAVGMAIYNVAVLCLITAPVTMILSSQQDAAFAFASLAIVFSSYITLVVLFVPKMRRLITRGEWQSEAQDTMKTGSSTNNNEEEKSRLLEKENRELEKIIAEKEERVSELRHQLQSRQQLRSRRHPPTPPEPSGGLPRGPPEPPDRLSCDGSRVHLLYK", "sequence (O75899 42-941 partner)": "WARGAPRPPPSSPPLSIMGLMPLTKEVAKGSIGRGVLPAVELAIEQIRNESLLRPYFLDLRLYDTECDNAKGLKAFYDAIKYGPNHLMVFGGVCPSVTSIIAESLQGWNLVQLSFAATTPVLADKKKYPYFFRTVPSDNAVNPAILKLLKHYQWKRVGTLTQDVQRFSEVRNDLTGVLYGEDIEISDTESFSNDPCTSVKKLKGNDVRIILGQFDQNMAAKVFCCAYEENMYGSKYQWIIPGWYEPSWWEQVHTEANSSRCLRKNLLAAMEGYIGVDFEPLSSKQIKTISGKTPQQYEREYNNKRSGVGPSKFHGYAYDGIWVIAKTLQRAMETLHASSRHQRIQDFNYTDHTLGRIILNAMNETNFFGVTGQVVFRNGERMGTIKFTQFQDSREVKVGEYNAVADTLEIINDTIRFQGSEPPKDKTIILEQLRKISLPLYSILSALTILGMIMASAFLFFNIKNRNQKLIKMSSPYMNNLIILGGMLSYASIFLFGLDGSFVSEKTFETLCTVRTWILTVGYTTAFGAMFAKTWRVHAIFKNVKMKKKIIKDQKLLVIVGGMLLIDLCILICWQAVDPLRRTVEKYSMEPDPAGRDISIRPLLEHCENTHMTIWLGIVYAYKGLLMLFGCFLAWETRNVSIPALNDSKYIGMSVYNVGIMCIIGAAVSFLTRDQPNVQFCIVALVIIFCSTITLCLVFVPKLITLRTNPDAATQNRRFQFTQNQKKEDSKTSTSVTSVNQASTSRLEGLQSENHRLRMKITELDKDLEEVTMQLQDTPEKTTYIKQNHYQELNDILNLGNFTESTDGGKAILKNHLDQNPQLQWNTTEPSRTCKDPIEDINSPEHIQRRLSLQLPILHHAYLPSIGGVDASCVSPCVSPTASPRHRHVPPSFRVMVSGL", "details": "Pozza et al., 1999; read-out: IC50 for presynaptic receptors in hippocampal slices; cited from earlier work"}, "[4]": {"tested_on": "2N and Ts65Dn mice", "experiment": "Spontaneous locomotor activity in activity box", "assay_type": "in vivo, mouse", "details": "0.5 mg/kg i.p. daily, acute (1 week) and chronic (3 weeks)", "protocol": "(§1) Behavioral testing. All mice were exposed to the same series of behavioral tests starting at 2-2.5 months of age. Each mouse was handled for 10 min, twice a day, during the 7 days that preceded testing and for 3 days in between tests. Tests for spontaneous locomotor activity and open field were performed before the drug, during the acute (1 week), and during the chronic (3 weeks) phases of the drug administration. Novel object recognition task with a 24 hours delay was performed during the chronic phase (3 weeks) of the drug administration. All behavioral testing took place during the light cycle between 7:00 a.m. and 7:00 p.m. and was performed at room temperature (22° C.). On the day of testing, the mice were left in their home cages in the experimental room for 2 hours for habituation. To minimize olfactory cues from the previous trial, each apparatus was thoroughly cleaned with 10% ethanol after each animal. CGP55845 (0.5 mg/kg) or equivalent volume of saline was injected intraperitoneally once a day during 3 weeks. Body weight was measured weekly. […]\nSpontaneous locomotor activity. Spontaneous locomotor activity was monitored using square Plexiglas activity chambers (43.2×43.2×20 cm) and activity monitor software (Med Associates Activity Monitor, version 5.93.773). […] Distance moved, velocity, resting time, and times spent in pre-defined areas of the arena were recorded. […]"}, "[5]": {"molecular_target": "postsynaptic GABAB receptors (Homo sapiens, UniProt Q9UBS5)", "sequence (Q9UBS5 20-961)": "as the sequence (Q9UBS5 20-961) above", "sequence (O75899 42-941 partner)": "as the sequence (O75899 42-941 partner) above", "details": "Pozza et al., 1999; read-out: IC50 for postsynaptic receptors in hippocampal slices; cited from earlier work"}, "[6]": {"tested_on": "2N and Ts65Dn mice", "experiment": "Open field activity", "assay_type": "in vivo, mouse", "details": "0.5 mg/kg i.p. daily, acute (1 week) and chronic (3 weeks)", "protocol": "as §1, with “On the day of testing, the mice were left in their home cages in the experimental room for 2 hours for habituation. To minimize olfactory cues from the previous trial, each apparatus was thoroughly cleaned with 10% ethanol after each animal. CGP55845 (0.5 mg/kg) or equivalent volume of saline was injected intraperitoneally once a day during 3 weeks.” left out\nOpen field activity. Open field activity was recorded with a video camera in the arena of white squared box (76×76×50 cm) and analyzed with an automated videotracking system EthoVision Pro 3.1 (Noldus Information Technology, Wageningen, The Netherlands). Mice were placed in the center of the open field arena under dim ambient light conditions and activity was monitored for 10 min in a single trial. […] Results were averaged for total distance traveled, number of entries and the time spent in the pre-determined areas (the center of the arena, the periphery, i.e. area extending 12 cm from the center, and the border, which included the four corners)."}, "[7]": {"tested_on": "2N and Ts65Dn mice", "experiment": "Novel object recognition with 24 h delay", "assay_type": "in vivo, mouse", "details": "0.5 mg/kg i.p. daily, 3 weeks", "protocol": "(§2) Behavioral testing. All mice were exposed to the same series of behavioral tests starting at 2-2.5 months of age. Each mouse was handled for 10 min, twice a day, during the 7 days that preceded testing and for 3 days in between tests. Tests for spontaneous locomotor activity and open field were performed before the drug, during the acute (1 week), and during the chronic (3 weeks) phases of the drug administration. Novel object recognition task with a 24 hours delay was performed during the chronic phase (3 weeks) of the drug administration. All behavioral testing took place during the light cycle between 7:00 a.m. and 7:00 p.m. and was performed at room temperature (22° C.). On the day of testing, the mice were left in their home cages in the experimental room for 2 hours for habituation. To minimize olfactory cues from the previous trial, each apparatus was thoroughly cleaned with 10% ethanol after each animal. CGP55845 (0.5 mg/kg) or equivalent volume of saline was injected intraperitoneally once a day during 3 weeks. Body weight was measured weekly. The body weight was lower in Ts65Dn than in 2N mice, and it was not affected by the treatment (Supplementary FIG. S6). All behavioral tests and procedures were performed by operators who were blind to the genotypes and drug treatment.\nNovel object recognition. The Bevins and Besheer protocol (Bevins and Besheer, 2006) for two sample objects with one environment was used to study learning and memory with 24 hours delays in 2N and Ts65Dn mice. Before testing, mice were habituated in a black Plexiglas chamber (31×24×27 cm) during 10 min for 2 consecutive days under dim ambient light conditions. Activity of mice during the object recognition task was recorded with a video camera. Two objects (A and B) consistent with height and volume, but different in shape and appearance were used in this test. […] The amount of time spent exploring each object (nose sniffing and head orientation within <1.0 cm) was recorded and evaluated by an operator, who was blind to both the phenotype and the treatment. […]"}, "[8]": {"experiment": "Body weight during treatment", "assay_type": "in vivo, mouse", "details": "0.5 mg/kg i.p. once a day during 3 weeks; 2N and Ts65Dn mice", "protocol": "as §2"}, "[9]": {"molecular_target": "T1, Kir3.2-containing potassium channels (Homo sapiens, UniProt P48051)", "T1 sequence (P48051 1-423)": "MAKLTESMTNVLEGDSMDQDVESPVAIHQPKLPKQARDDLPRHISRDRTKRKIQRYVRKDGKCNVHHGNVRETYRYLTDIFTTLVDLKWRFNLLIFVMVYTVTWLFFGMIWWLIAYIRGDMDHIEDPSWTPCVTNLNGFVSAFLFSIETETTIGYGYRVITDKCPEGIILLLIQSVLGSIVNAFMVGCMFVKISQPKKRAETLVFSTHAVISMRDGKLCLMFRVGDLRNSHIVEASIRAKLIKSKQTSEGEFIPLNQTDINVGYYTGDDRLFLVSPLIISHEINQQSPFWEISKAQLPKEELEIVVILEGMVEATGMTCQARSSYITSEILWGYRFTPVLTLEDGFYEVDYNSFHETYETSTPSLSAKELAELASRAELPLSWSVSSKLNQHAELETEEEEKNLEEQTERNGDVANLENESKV", "details": "Kobayashi et al., 2004; read-out: IC50 for block of Kir3.2 channels; cited from earlier work"}, "[10]": {"tested_on": "dentate gyrus (DG) of hippocampal slices", "assay_type": "cell-based, mouse", "details": "1 μM"}, "[11]": {"tested_on": "dentate gyrus (DG) of hippocampal slices", "experiment": "Paired-pulse depression of the population spike (feedback inhibition) in DG", "assay_type": "cell-based, mouse", "details": "1 μM, interstimulus interval 30 ms", "protocol": "Recording of evoked field potentials. A slice was transferred into the recording submerged chamber and superfused with ACSF at a constant rate of 2.5 ml/min at 32° C. Recording electrodes were made of borosilicate glass capillaries (1B150F, World Precision Instruments, Sarasota, Fla.) and were filled with 2M NaCl (resistance 0.3-0.5 MΩ). Monopolar stimulating electrodes were maid of Pt/Ir wires with diameter 25.4 μm (PTT0110, World Precision Instruments, Sarasota, Fla.) and had 100-μm-long exposed tips. […]\nThe amplitude of the population spike was measured as follows: 1) a line was drawn at the base of the population spike connecting the first and second peaks of the field response; 2) a second line was drawn at the peak of the population spike (i.e. at the peak of the downward deflection); 3) at the peak of the spike, a line was drawn vertically between these two lines to give the amplitude of the population spike. The magnitude of the field excitatory postsynaptic potential (fEPSP) was measured as the initial slope of the linear part of the fEPSP (latencies 0.1-0.9 ms). […]\nEffects of GABAB antagonists on pro-epileptic properties in Ts65Dn DG. […] We evaluated the effect of GABAB antagonists on feedback inhibition by measuring paired-pulse depression of the population spike amplitude (PS2/PS1). […]"}, "[12]": {"tested_on": "Ts65Dn hippocampal LTP", "details": "in vitro system; Kleschevnikov 2004; cited from earlier work"}, "[13]": {"tested_on": "mRNAs for NGF and BDNF", "details": "Heese et al., 2000; cited from earlier work"}, "[14]": {"molecular_target": "GABAB receptor (Homo sapiens, UniProt Q9UBS5)", "sequence (Q9UBS5 20-961)": "as the sequence (Q9UBS5 20-961) above", "sequence (O75899 42-941 partner)": "as the sequence (O75899 42-941 partner) above", "details": "1 μM; baclofen 5-10 μM; cited from earlier work"}},
  "data": [
    {"compound": "CGP55845", "values": [
      {"measurement": "effect on LTP", "setting": "[1]; 0.1 μM, Ts65Dn slices", "value": "enhanced LTP in Ts65Dn"},
      {"measurement": "effect on LTP", "setting": "[1]; 1.0 μM, 2N slices", "value": "enhanced LTP in both Ts65Dn and 2N slices"},
      {"measurement": "effect on LTP", "setting": "[1]; 1.0 μM, Ts65Dn slices", "value": "enhanced LTP in both Ts65Dn and 2N slices"},
      {"measurement": "frequency of spontaneous ictal bursts", "setting": "[2]; 2N and Ts65Dn DG, p=0.8", "value": "did not affect"},
      {"measurement": "amplitude of burst-associated field potentials", "setting": "[2]; change greater in Ts65Dn than 2N, p<0.01", "value": "significantly reduced"},
      {"measurement": "IC50", "setting": "[3]", "value": 740, "unit": "nM"},
      {"measurement": "spontaneous locomotor activity", "setting": "[4]", "value": "did not affect"},
      {"measurement": "IC50", "setting": "[5]", "value": 110, "unit": "nM"},
      {"measurement": "open field parameters (velocity, distance, time in regions)", "setting": "[6]", "value": "no significant effect"},
      {"measurement": "exploration habits (total time of exploration of objects)", "setting": "[7]; 2N and Ts65Dn mice", "value": "no effect"},
      {"measurement": "improvement of memory in novel object recognition", "setting": "[7]; 2N mice", "value": "observed only in Ts65Dn mice"},
      {"measurement": "discrimination index", "setting": "[7]; Ts65Dn mice vs Ts65Dn vehicle control, p<0.05", "value": "significantly higher"},
      {"measurement": "body weight", "setting": "[8]", "value": "not affected"}
    ]},
    {"compound": "CNCCC(Oc1ccc(C(F)(F)F)cc1)c1ccccc1", "note": "(stereo not drawn) [fluoxetine]", "values": [
      {"measurement": "effect on LTP", "setting": "[1]; 10 μM, Ts65Dn DG", "value": "enhanced LTP in the Ts65Dn DG"},
      {"measurement": "IC50", "setting": "[9]", "value": "~10000", "unit": "nM"}
    ]},
    {"compound": "CCOC(OCC)P(=O)(O)CCCNCc1ccc(Cl)c(Cl)c1", "note": "[CGP52432]", "values": [
      {"measurement": "effect on LTP", "setting": "[1]; 1.0 μM, Ts65Dn slices", "value": "enhanced LTP in the Ts65Dn DG"},
      {"measurement": "NMDA receptor-mediated component of the tetanus-evoked field responses", "setting": "[10]", "value": "enhanced the NMDA receptor-mediated responses"},
      {"measurement": "NMDA receptor-mediated component of the tetanus-evoked responses", "setting": "[10]", "value": "restored to 2N levels"},
      {"measurement": "tetanus-evoked field responses", "setting": "[10]", "value": "significantly increased"},
      {"measurement": "PS2/PS1 ratio", "setting": "[11]; 2N slices, baseline 1.09±0.18", "value": "0.93±0.25"},
      {"measurement": "PS2/PS1 ratio", "setting": "[11]; Ts65Dn slices, baseline 0.71±0.16", "value": "0.59±0.17"}
    ]},
    {"compound": "picrotoxin", "values": [
      {"measurement": "deficits in Ts65Dn hippocampal LTP", "setting": "[12]", "value": "reverse"}
    ]},
    {"compound": "CCCCP(=O)(O)CCCN", "note": "[CGP36742]", "values": [
      {"measurement": "levels of mRNAs for NGF and BDNF", "setting": "[13]", "value": "increased"}
    ]},
    {"compound": "C[C@H](NC[C@H](O)CP(=O)(O)Cc1ccccc1)c1ccc(Cl)c(Cl)c1.Cl", "note": "[CGP 55845A]", "values": [
      {"measurement": "baclofen-induced postsynaptic hyperpolarization and depression of evoked IPSPs and EPSPs", "setting": "[14]", "value": "blocks"}
    ]}
  ]
}
